Experimental data: ChEMBL document CHEMBL3045674, “Synthesis of N-[3-(acetylthio)alkanoyl] and N-[3-mercaptoalkanoyl]-4-(s)-(phenylmethyl) pyroglutamic acids and prolines as potent ACE inhibitors” (2009)
Active and inactive are the calls of the source. The rule behind the calls is not given here.

Key:
[1] = test system: Rattus norvegicus; test: Antihypertensive activity in Rattus norvegicus Sprague-Dawley (rat) assessed as inhibition of angiotensin-1-induced increase in blood pressure at 10 ug/kg, iv administered 5 min before angiotensin-1 challenge; assay type: functional
[2] = test system: Rattus norvegicus; test: Antihypertensive activity in Rattus norvegicus Sprague-Dawley (rat) assessed as inhibition of angiotensin-1-induced increase in blood pressure at 30 ug/kg, iv administered 5 min before angiotensin-1 challenge; assay type: functional

Compound | inhibition in vivo at 0.01 mg/kg [1] [%] | inhibition in vivo at 0.03 mg/kg [2] [%] | inhibition [1]
CC(=O)SC[C@@H](C)C(=O)N1C[C@@H](Cc2ccccc2)C[C@H]1C(=O)O | 22 | – | –
CC(=O)SC[C@@H](C)C(=O)N1C(=O)[C@@H](Cc2ccccc2)C[C@H]1C(=O)O | – | 60 | inactive
CC(=O)SCCC(=O)N1C(=O)[C@@H](Cc2ccccc2)C[C@H]1C(=O)O | 13 | 20 | –
C[C@H](CS)C(=O)N1CCC[C@H]1C(=O)O [CAPTOPRIL] | 60 | – | –
